Measurements taken from publication PMC10281575, “PfCRT mutations conferring piperaquine resistance in falciparum malaria shape the kinetics of quinoline drug binding and transport” (PLOS Pathogens, 2023).
Positions count from the first letter of the chain named. Values joined by “and” are separate entries in the source; they are usually repeats but may differ in a detail not shown here. Equal values may be shown once. Read-outs that look alike come from different tables or passages of the source.

Assays:
PfCRT^Dd2_G353V = molecular target: T1, PfCRT^Dd2_G353V (Plasmodium falciparum, UniProt Q8IBZ9, A220S/G353V/I356T/K76T/M74I/N326S/N75E/Q271E/R371I); assay: Radiolabeled drug uptake in X. laevis oocytes expressing PfCRT^Dd2_G353V; format: cell-based
T1 construct: expressed in transfected cells; host or cells: Xenopus laevis oocytes injected with in vitro transcribed RNA (pSP64T)
T1 sequence (Q8IBZ9 1-424 M74I/N75E/K76T/A220S/Q271E/N326S/G353V/I356T/R371I): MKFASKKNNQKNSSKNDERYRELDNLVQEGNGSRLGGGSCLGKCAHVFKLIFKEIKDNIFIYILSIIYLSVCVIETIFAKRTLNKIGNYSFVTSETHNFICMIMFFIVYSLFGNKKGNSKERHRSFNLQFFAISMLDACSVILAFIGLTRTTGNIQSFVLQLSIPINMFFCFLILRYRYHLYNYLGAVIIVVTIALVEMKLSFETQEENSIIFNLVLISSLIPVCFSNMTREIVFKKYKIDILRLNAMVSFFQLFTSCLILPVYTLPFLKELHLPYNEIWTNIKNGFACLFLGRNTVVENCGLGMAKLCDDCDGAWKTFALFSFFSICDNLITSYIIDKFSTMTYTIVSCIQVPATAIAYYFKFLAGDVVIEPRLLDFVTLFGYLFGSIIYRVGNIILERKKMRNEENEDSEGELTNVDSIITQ
Text: A codon-optimized coding sequence of the Dd2 isoform of PfCRT (PfCRT^Dd2) was subcloned into the pSP64T expression vector [21]. To generate the necessary mutations to introduce the amino acid substitutions H97Y, F145I, M343L or G353V into the pfcrt sequence, the overlap extension method was used. A region from the 5’-untranslated Xenopus β-globin sequence to the respective 3’ region, containing the full length pfcrt coding sequence, was amplified using the following primer pairs: for the H97Y mutation, numbers 1/4 and 2/3; for the F145I mutation, numbers 1/6 and 2/5; for the M343L mutation, numbers 1/8 and 2/7; and for the G353V mutation, numbers 1/10 and 2/9 (for primers, see S2 Table). Both PCR products were used as template for amplification of the final product using primers number 1/2. The resulting fragment was cloned into the pSP64T expression vector, and the presence of the desired mutation was confirmed by sequencing.
Adult female X. laevis frogs (purchased from NASCO) were anesthetized by submersion in a solution of 0.3% (w/v) 3-amino benzoate methanesulfonate for 15 min. Sections of the ovary were surgically removed and placed in Ca^2+-free ND96 buffer supplemented with 0.1% collagenase D (w/v; Roche), 0.5% BSA (w/v) and 9 mM Na2HPO4 at 18°C for 14–16 h while gently shaking. The oocytes were then washed several times with ND96 buffer (5 mM HEPES, pH 7.5, 96 mM NaCl, 2 mM KCl, 1.8 mM CaCl2, 1 mM MgCl2), supplemented with […] gentamycin. Healthy-looking stage V-VI oocytes were manually selected and randomly grouped for injection. A codon-optimized coding sequence of PfCRT was subcloned into the pSP64T expression vector and subsequently linearized using the restriction endonuclease BamHI or SalI (New England Biolabs GmbH). RNA for injection was transcribed in vitro using the mMESSAGE mMACHINE SP6 Transcription kit (Ambion), diluted with nuclease-free water to a final concentration of 0.6 μg/μL and stored at -80°C. RNA was injected using precision-bore glass capillary tubes (3.5-inch glass capillaries; Drummond Scientific Co.), which were pulled on a vertical puller (P-87 Flaming/Brown micropipette puller, Sutter Instrument Co.) and graduated. The micropipettes were connected to a microinjector (Nanoject II Auto-Nanoliter Injector, Drummond Scientific Co.). Injection was conducted under stereomicroscopic control. 50 nL of nuclease-free water alone (control oocytes) or 50 nL of nuclease-free water containing 30 ng of RNA was injected per oocyte. Injected oocytes were kept for 72 h at 18°C in ND96 buffer with two daily buffer changes before being used for further experiments.
Drug transport assays were performed as previously described. Briefly, measurements of radiolabeled drug uptake were made over 1 h, unless otherwise specified. […] Where specified, one or more unlabeled drugs were also present at the indicated concentrations. […] The uptake assays were terminated by removing the oocytes from the reaction medium and washing them three times with 2 mL of ice-cold ND96 buffer. Each oocyte was transferred to a separate scintillation vial and lysed by the addition of 200 μL of a 5% SDS solution. The radioactivity in the sample was measured using a liquid scintillation analyser Tri-Carb 4910 TR (PerkinElmer). Water-injected oocytes were analyzed in parallel as a negative control. The buffer from each condition was measured in duplicate in parallel to each experiment to transform counts per minute into pmol of drug. Drug uptake attributable to PfCRT was determined by subtracting the background uptake from water-injected oocytes from that of PfCRT-expressing oocytes. In all cases, at least three independent experiments were performed on oocytes from different frogs, and for each condition in an experiment, measurements were made from 10 oocytes per treatment.

PfCRT^Dd2 = molecular target: T2, PfCRT^Dd2 (Plasmodium falciparum, UniProt Q8IBZ9, A220S/I356T/K76T/M74I/N326S/N75E/Q271E/R371I); conditions: read-out: apparent Km for CQ on PfCRT^Dd2, cited from earlier work
T2 sequence (Q8IBZ9 1-424 M74I/N75E/K76T/A220S/Q271E/N326S/I356T/R371I): T1 sequence (Q8IBZ9 1-424 M74I/N75E/K76T/A220S/Q271E/N326S/G353V/I356T/R371I) with V353G

| SMILES | PfCRTDd2_G353V-mediated PPQ uptake at 10 µM PPQ (PfCRT^Dd2_G353V; 10 µM PPQ, single replicates) | PfCRTDd2_G353V-mediated PPQ uptake at 50 µM PPQ (PfCRT^Dd2_G353V; 50 µM PPQ, single replicates) | PfCRTDd2_G353V-mediated PPQ uptake at 100 µM PPQ (PfCRT^Dd2_G353V; 100 µM PPQ, single replicates) | PfCRTDd2_G353V-mediated PPQ uptake at 300 µM PPQ (PfCRT^Dd2_G353V; 300 µM PPQ, single replicates) | PfCRTDd2_G353V-mediated PPQ uptake at 500 µM PPQ (PfCRT^Dd2_G353V; 500 µM PPQ, single replicates) | Km (PfCRT^Dd2_G353V; Michaelis-Menten fit, 10-500 μM drug, pH 6, read-out: KM, Michaelis constant) [µM] | PfCRTDd2_G353V-mediated CQ uptake at 10 µM CQ (PfCRT^Dd2_G353V; 10 µM CQ, single replicates) | PfCRTDd2_G353V-mediated CQ uptake at 50 µM CQ (PfCRT^Dd2_G353V; 50 µM CQ, single replicates) | PfCRTDd2_G353V-mediated CQ uptake at 100 µM CQ (PfCRT^Dd2_G353V; 100 µM CQ, single replicates) | PfCRTDd2_G353V-mediated CQ uptake at 300 µM CQ (PfCRT^Dd2_G353V; 300 µM CQ, single replicates) | PfCRTDd2_G353V-mediated CQ uptake at 500 µM CQ (PfCRT^Dd2_G353V; 500 µM CQ, single replicates) | Vmax, maximal velocity of drug transport (PfCRT^Dd2_G353V; Michaelis-Menten fit, 10-500 μM drug, pH 6) [pmol oocyte^-1 h^-1] | Km (PfCRT^Dd2; ref Bellanca et al., 2014) [µM] | Km (PfCRT^Dd2; ref Martin et al. 2009) [µM] |
| --- | --- | --- | --- | --- | --- | --- | --- | --- | --- | --- | --- | --- | --- | --- |
| Clc1ccc2c(N3CCN(CCCN4CCN(c5ccnc6cc(Cl)ccc56)CC4)CC3)ccnc2c1 [PPQ, piperaquine] | 5.31 pmol oocyte-1 h-1 and 5.17 pmol oocyte-1 h-1 and 3.93 pmol oocyte-1 h-1 | 29.38 pmol oocyte-1 h-1 and 45.38 pmol oocyte-1 h-1 and 21.36 pmol oocyte-1 h-1 and 40.00 pmol oocyte-1 h-1 and 56.34 pmol oocyte-1 h-1 and 56.46 pmol oocyte-1 h-1 and 95.52 pmol oocyte-1 h-1 and 62.83 pmol oocyte-1 h-1 | 105.67 pmol oocyte-1 h-1 and 52.72 pmol oocyte-1 h-1 and 63.14 pmol oocyte-1 h-1 | 116.72 pmol oocyte-1 h-1 and 65.87 pmol oocyte-1 h-1 and 109.27 pmol oocyte-1 h-1 | 126.72 pmol oocyte-1 h-1 and 99.20 pmol oocyte-1 h-1 and 126.01 pmol oocyte-1 h-1 | 90 ± 20 | – | – | – | – | – | – | – | – |
| CCN(CC)CCCC(C)Nc1ccnc2cc(Cl)ccc12 (centres unmarked) [CQ, chloroquine] | – | – | – | – | – | – | 0.74 pmol oocyte-1 h-1 and 0.50 pmol oocyte-1 h-1 and 0.07 pmol oocyte-1 h-1 | 4.74 pmol oocyte-1 h-1 and 5.01 pmol oocyte-1 h-1 and 2.88 pmol oocyte-1 h-1 and 3.92 pmol oocyte-1 h-1 and 4.76 pmol oocyte-1 h-1 | 7.26 pmol oocyte-1 h-1 and 6.49 pmol oocyte-1 h-1 and 5.26 pmol oocyte-1 h-1 | 16.30 pmol oocyte-1 h-1 and 8.52 pmol oocyte-1 h-1 and 8.09 pmol oocyte-1 h-1 | 17.15 pmol oocyte-1 h-1 and 14.95 pmol oocyte-1 h-1 and 14.10 pmol oocyte-1 h-1 | 23 ± 3 | 250 ± 30 | 245 ± 3 |
